The values that follow come from patent US8637501B2, “Azinone-substituted azepino[b]indole and pyrido-pyrrolo-azepine MCH-1 antagonists, methods of making, and use thereof” (Albany Molecular Research, Inc., priority 2009, dated 2014).

Each structure is given as a SMILES string. Structures can show the parent of a compound that is named as a salt.

Sequence of human MCH-1 receptor (Q99705 whole entry): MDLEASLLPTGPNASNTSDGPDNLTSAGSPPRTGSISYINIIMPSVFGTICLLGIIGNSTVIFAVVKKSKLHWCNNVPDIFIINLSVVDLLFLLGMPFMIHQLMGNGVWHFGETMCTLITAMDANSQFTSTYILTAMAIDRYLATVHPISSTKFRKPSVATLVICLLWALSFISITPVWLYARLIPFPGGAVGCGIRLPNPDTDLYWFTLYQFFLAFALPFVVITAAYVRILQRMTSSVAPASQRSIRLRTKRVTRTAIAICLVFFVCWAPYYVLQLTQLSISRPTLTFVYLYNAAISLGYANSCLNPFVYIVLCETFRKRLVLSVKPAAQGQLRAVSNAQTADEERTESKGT

The assay deals with human MCH-1 receptor (Homo sapiens (Human), UniProt Q99705). Nature of the assay: Binding Assay for Human Melanin-Concentrating Hormone (MCH-1) Receptor. As to conditions: radioligand displacement, membranes from CHO-K1 cells expressing human MCH-1 receptor; Ki from IC50 by Cheng Prusoff equation; read-out: MCH1 Ki. How it is done:
Binding Assay for Human Melanin-Concentrating Hormone (MCH-1) Receptor
Evaluation of the affinity of compounds for the human MCH-1 receptor was accomplished using 4-(3,4,5-tritritiumbenzyloxy)-1-(1-(2-(pyrrolidin-1-yl)ethyl)-1H-indazol-5-yl)pyridin-2(1H)-one and membranes prepared from stable CHO-K1 cells expressing the human MCH-1 receptor obtained from Euroscreen (Batch 1138). Cell membrane homogenates (8.92 μg protein) were incubated for 60 min at 25° C. with 1.4 nM of the [^3H]-labeled compound in the absence or presence of the test compound in 50 mM Tris-HCl buffer, pH 7.4. Nonspecific binding was determined in the presence of 50 μM 1-(5-(4-cyanophenyl)bicyclo[3.1.0]hexan-2-yl)-3-(4-fluoro-3-(trifluoromethyl)phenyl)-1-(3-(4-methylpiperazin-1-yl)propyl)urea. Following incubation, the samples were filtered rapidly under vacuum through Skatron 11731 filters, pre-soaked in 0.5% polyethylenimine, and washed with ice-cold 50 mM Tris-HCl buffer, pH 7.4, (wash setting 9,9,0) using a Skatron cell harvester. The filters were counted for radioactivity in a liquid scintillation counter (Tri-Carb 2100TR, Packard) using a scintillation cocktail (Ultima Gold MV, Perkin Elmer).
The results are expressed as a percent inhibition of the control radioligand specific binding. The IC50 value (concentration causing a half-maximal inhibition of control specific binding) and Hill coefficient (nH) were determined by non-linear regression analysis of the competition curve using Hill equation curve fitting. The inhibition constant (Ki) was calculated from the Cheng Prusoff equation: (Ki=IC50/(1+(L/KD)), where L=concentration of radioligand in the assay, and KD=affinity of the radioligand for the receptor.
(In general: Displacement assays read how much labelled ligand stays bound in the presence of the test substance.)
With `Cc1ccc(COc2ccn(-c3ccc4c5c(n(C)c4c3)CCNCC5)c(=O)c2)cn1` [Example 45, 1-(6-Methyl-1,2,3,4,5,6-hexahydroazepino[4,5-b]indol-8-yl)-4-((6-methylpyridin-3-yl)methoxy)pyridin-2(1H)-one dihydrochloride], the Ki (in general, a measure of affinity in units of concentration, obtained from inhibition or displacement) is 26 nM.

As for `CC(=O)N1CCc2c(n(C)c3cc(-n4ccc(-c5ccc(C(F)(F)F)nc5)cc4=O)ccc23)CC1` [Example 46, 1-(3-Acetyl-6-methyl-1,2,3,4,5,6-hexahydroazepino[4,5-b]indol-8-yl)-4-(6-(trifluoromethyl)pyridin-3-yl)pyridin-2(1H)-one], the Ki stood at 47 nM.

For `Cn1c2c(c3ccc(-n4ccc(-c5ccc(C(F)(F)F)cc5)nc4=O)cc31)CCNCC2` [Example 49, 1-(6-Methyl-1,2,3,4,5,6-hexahydroazepino[4,5-b]indol-8-yl)-4-(4-(trifluoromethyl)phenyl)pyrimidin-2(1H)-one hydrochloride], the Ki stood at 17 nM.

`Cn1c2c(c3ccc(-n4ccc(OCc5ccc(Cl)cn5)cc4=O)cc31)CCNCC2` [Example 50, 4-((5-Chloropyridin-2-yl)methoxy)-1-(6-methyl-1,2,3,4,5,6-hexahydroazepino[4,5-b]indol-8-yl)pyridin-2(1H)-one hydrochloride]: the Ki was determined as 7.4 nM.

In the case of `Cn1c2c(c3ccc(-n4ccc(OCc5ccc(Cl)cc5Cl)cc4=O)cc31)CCNCC2` [Example 51, 4-(2,4-Dichlorobenzyloxy)-1-(6-methyl-1,2,3,4,5,6-hexahydroazepino[4,5-b]indol-8-yl)pyridin-2(1H)-one], the Ki came to 24 nM.

Consider `Cn1c2c(c3ccc(-n4ccc(OCc5ccc(F)cc5F)cc4=O)cc31)CCNCC2` [Example 52, 4-(2,4-Difluorobenzyloxy)-1-(6-methyl-1,2,3,4,5,6-hexahydroazepino[4,5-b]indol-8-yl)pyridin-2(1H)-one hydrochloride], for which the Ki was 7.8 nM.

On to `Cn1c2c(c3ccc(N4CCN(CCc5ccc(Cl)cc5)CC4=O)cc31)CCNCC2` [Example 53, 4-(4-Chlorophenethyl)-1-(6-methyl-1,2,3,4,5,6-hexahydroazepino[4,5-b]indol-8-yl)piperazin-2-one dihydrochloride], for which the Ki stood at 13 nM.

As to `Cn1c2c(c3ccc(-n4ccc(OCc5ccc(Cl)cc5F)cc4=O)cc31)CCNCC2` [Example 55, 4-(4-Chloro-2-fluorobenzyloxy)-1-(6-methyl-1,2,3,4,5,6-hexahydroazepino[4,5-b]indol-8-yl)pyridin-2(1H)-one hydrochloride], the Ki worked out at 12 nM.

On to `Cn1c2c(c3ccc(-n4ccc(OCc5ccc(F)cc5)cc4=O)cc31)CCNCC2` [Example 57, 4-(4-Fluorobenzyloxy)-1-(6-methyl-1,2,3,4,5,6-hexahydroazepino[4,5-b]indol-8-yl)pyridin-2(1H)-one hydrochloride], for which the Ki amounted to 7.3 nM.

Turning to `Cn1c2c(c3ccc(-n4ccc(-c5ccc(C(F)(F)F)nc5)nc4=O)cc31)CCNCC2` [Example 58, 1-(6-Methyl-1,2,3,4,5,6-hexahydroazepino[4,5-b]indol-8-yl)-4-(6-(trifluoromethyl)pyridin-3-yl)pyrimidin-2(1H)-one hydrochloride], the Ki came out at 163 nM.

Consider `Cn1c2c(c3ccc(N4CCN(CCc5ccccn5)CC4=O)cc31)CNCCC2` [Example 59, 1-(6-Methyl-1,2,3,4,5,6-hexahydroazepino[4,3-b]indol-8-yl)-4-(2-(pyridin-2-yl)ethyl)piperazin-2-one dihydrochloride], for which the Ki was 44 nM.

As for `Cn1c2c(c3ccc(-n4ncc(OCc5ccc(C(F)(F)F)nc5)cc4=O)cc31)CNCCC2` [Example 60, 2-(6-Methyl-1,2,3,4,5,6-hexahydroazepino[4,3-b]indol-8-yl)-5-((6-(trifluoromethyl)pyridin-3-yl)methoxy)pyridazin-3(2H)-one hydrochloride], the Ki is 21 nM.

Consider `Cn1c2c(c3ccc(-n4ccc(OCc5ccc(Cl)cc5Cl)cc4=O)cc31)CNCCC2` [Example 65, 4-(2,4-Dichlorobenzyloxy)-1-(6-methyl-1,2,3,4,5,6-hexahydroazepino[4,3-b]indol-8-yl)pyridin-2(1H)-one hydrochloride], for which the Ki was 11 nM.

As to `CN1CCCc2c(c3ccc(-n4ccc(-c5ccc(C(F)(F)F)nn5)cc4=O)cc3n2C)C1` [Example 69, 1-(2,6-Dimethyl-1,2,3,4,5,6-hexahydroazepino[4,3-b]indol-8-yl)-4-(6-(trifluoromethyl)pyridazin-3-yl)pyridin-2(1H)-one hydrochloride], the Ki turned out to be 12 nM.

Regarding `CN1CCCc2c(c3ccc(-n4ccc(OCc5ccc(F)cn5)cc4=O)cc3n2C)C1` [Example 70, 1-(2,6-Dimethyl-1,2,3,4,5,6-hexahydroazepino[4,3-b]indol-8-yl)-4-((5-fluoropyridin-2-yl)methoxy)pyridin-2(1H)-one hydrochloride], the Ki came out at 8.8 nM.

Regarding `CN1CCCc2c(c3ccc(-n4ccc(OCc5ccc(C(F)(F)F)nc5)cc4=O)cc3n2C)C1` [Example 71, 1-(2,6-Dimethyl-1,2,3,4,5,6-hexahydroazepino[4,3-b]indol-8-yl)-4-((6-(trifluoromethyl)pyridin-3-yl)methoxy)pyridin-2(1H)-one hydrochloride], the Ki turned out to be 8.5 nM.

Turning to `CCN1CCCc2c(c3ccc(-n4ccc(OCc5ccc(F)cn5)cc4=O)cc3n2C)C1` [Example 73, 1-(2-Ethyl-6-methyl-1,2,3,4,5,6-hexahydroazepino[4,3-b]indol-8-yl)-4-((5-fluoropyridin-2-yl)methoxy)pyridin-2(1H)-one hydrochloride], the inhibition constant Ki came to 9.4 nM.

In the case of `Cn1c2c(c3ccc(-n4ccc(OCc5ccc(F)cc5F)cc4=O)nc31)CCNCC2` [Example 83, 4-(2,4-Difluorobenzyloxy)-1-(10-methyl-5,6,7,8,9,10-hexahydropyrido[3′,2′:4,5]pyrrolo[2,3-d]azepin-2-yl)pyridin-2(1H)-one hydrochloride], the Ki was 13 nM.

In the case of `Cn1c2c(c3ccc(-n4ccc(OCc5ccc(Cl)cc5F)cc4=O)nc31)CCNCC2` [Example 84, 4-(4-Chloro-2-fluorobenzyloxy)-1-(10-methyl-5,6,7,8,9,10-hexahydropyrido[3′,2′:4,5]pyrrolo[2,3-d]azepin-2-yl)pyridin-2(1H)-one hydrochloride], the Ki was 11 nM.

For `Cn1c2c(c3ccc(-n4ccc(OCc5ccc(Cl)cn5)cc4=O)nc31)CCNCC2` [Example 85, 4-((5-Chloropyridin-2-yl)methoxy)-1-(10-methyl-5,6,7,8,9,10-hexahydropyrido[3′,2′:4,5]pyrrolo[2,3-d]azepin-2-yl)pyridin-2(1H)-one hydrochloride], the Ki stood at 11 nM.

Consider `Cn1c2c(c3ccc(-n4ccc(OCc5ccccc5)cc4=O)nc31)CCN(C1CCC1)CC2` [Example 86, 4-(Benzyloxy)-1-(7-cyclobutyl-10-methyl-5,6,7,8,9,10-hexahydropyrido[3′,2′:4,5]pyrrolo[2,3-d]azepin-2-yl)pyridin-2(1H)-one hydrochloride], for which the Ki stood at 16 nM.

For `CCN1CCc2c(n(C)c3nc(-n4ccc(OCc5ccccc5)cc4=O)ccc23)CC1` [Example 87, 4-(Benzyloxy)-1-(7-ethyl-10-methyl-5,6,7,8,9,10-hexahydropyrido[3′,2′:4,5]pyrrolo[2,3-d]azepin-2-yl)pyridin-2(1H)-one hydrochloride], the Ki amounted to 6.9 nM.
